According to ChEMBL document CHEMBL1862790, “Optimisation of fenarimol series for the treatment of Chagas disease”:

Tests used:
Trypanosoma cruzi [1] = assay: microbe, parasite or virus in culture; assay type: functional, Tulahuen LacZ, Clone C4; conditions: Trypanosoma cruzi, Tulahuen LacZ, Clone C4
Trypanosoma cruzi [2] = assay: microbe, parasite or virus in culture; assay type: functional, organism-based, Tulahuen LacZ, Clone C4; conditions: Trypanosoma cruzi, Tulahuen LacZ, Clone C4
[3] = DNDI: Cytotoxicity against L-6 rat myoblasts from skeletal muscle cells; conditions: L6 rat skeletal muscle myoblast cells

| IC90 (Trypanosoma cruzi [1]) [nM] | IC50 (Trypanosoma cruzi [2]) [nM] | SMILES | IC50 ([3]; IC50) [nM] | IC50 [3] [nM] |
| --- | --- | --- | --- | --- |
| 210 | 96 | Clc1ccc(C(NCc2ccccc2)c2cccnc2)cc1 (stereo not drawn) | > 100000 | – |
| 105 | 5 | OC(c1cccnc1)(c1cccs1)c1ccc(Cl)cc1F (stereo not drawn) | > 100000 | – |
| > 1000 | > 1000 | OC(c1ccc(Cl)cc1)(c1ccc(C(F)(F)F)cc1)c1cc(-c2ccccc2)on1 (stereo not drawn) | 18700 | – |
| > 1000 | > 1000 | Cc1cnc(C(O)(c2ccc(Cl)cc2)c2ccc(C(F)(F)F)cc2)cn1 (stereo not drawn) | 61600 | – |
| 899 | 78 | COc1ccc(CNC(c2ccc(Cl)cc2)c2cccnc2)cc1 (stereo not drawn) | > 100000 | – |
| 80 | 32 | Clc1ccc(C(NCC2CCCCC2)c2cccnc2)cc1 (stereo not drawn) | 59700 | – |
| 570 | 290 | Clc1ccc(C(c2cccnc2)n2cccn2)cc1 (stereo not drawn) | > 100000 | – |
| 216 | 110 | CS(=O)(=O)N1CCN(C(c2ccc(Cl)cc2)c2cccnc2)CC1 (stereo not drawn) | > 100000 | – |
| 180 | 55 | CC(C)CC(=O)N1CCN(C(c2ccc(Cl)cc2)c2cccnc2)CC1 (stereo not drawn) | > 100000 | – |
| > 1000 | > 1000 | N#CC(c1ccc(Cl)cc1)c1ccccn1 (stereo not drawn) | > 100000 | – |
| > 1000 | > 1000 | Cc1noc(C)c1C(O)(c1ccc(Cl)cc1)c1ccc(C(F)(F)F)cc1 (stereo not drawn) | 57900 | – |
| > 1000 | 800 | OC1CCN(C(c2ccc(Cl)cc2)c2cccnc2)CC1 (stereo not drawn) | > 100000 | – |

Continued, molecule first:

| SMILES | IC90 (Trypanosoma cruzi [1]) [nM] | IC50 (Trypanosoma cruzi [2]) [nM] | IC50 ([3]; IC50) [nM] | IC50 [3] [nM] |
| --- | --- | --- | --- | --- |
| Cc1ccncc1C(O)(c1ccc(Cl)cc1)c1ccc(C(F)(F)F)cc1 (stereo not drawn) | 140 | 42 | 56500 | – |
| CCCCOC(Cc1ccc(Cl)nc1)c1ccc(Cl)cc1Cl (stereo not drawn) | > 10000 | > 10000 | 91400 | – |
| NC(=O)c1ccc(C(O)(c2ccc(C(F)(F)F)cc2)c2cccnc2)cc1 (stereo not drawn) | 390 | 120 | > 100000 | – |
| CCCCC(O)(c1ccc(OC(C)C)cc1)c1cccnc1 (stereo not drawn) | 36 | 17 | 55900 | – |
| OC(c1ccc(Cl)cc1)(c1ccc(C(F)(F)F)cc1)c1nnc[nH]1 (stereo not drawn) | > 10000 | 7420 | > 100000 | – |
| CC(C)CC(Nc1cccnc1)c1ccc(Cl)cc1 (stereo not drawn) | > 1000 | 640 | 56200 | – |
| CO/N=C(\c1ccc(Cl)cc1)c1cccnc1 | > 1000 | > 1000 | > 100000 | – |
| OC(c1ccc(Cl)cc1)(c1ccc(C(F)(F)F)cc1)c1cnc2ccccc2c1 (stereo not drawn) | > 1000 | > 1000 | 62600 | – |
| NC(=O)c1ccccc1C(O)(c1ccc(Cl)cc1)c1cccnc1 (stereo not drawn) | 140 | 33 | > 100000 | – |
| OC(c1ccc(Cl)cc1)(c1cccnc1)c1cccc(F)c1F (stereo not drawn) | 256 | 107 | – | > 100000 |
| Cc1ccc(C(O)(c2cccnc2)c2ccccc2Cl)cc1 (stereo not drawn) | 160 | 70 | – | > 100000 |
| CCCCC(NCC1CCCCC1)c1cccnc1 (stereo not drawn) | 700 | 450 | > 100000 | – |
| OC(c1ccc(Cl)cc1)(c1cccnc1)c1cc(F)ccc1F (stereo not drawn) | 108 | 44 | – | > 100000 |
| OC(c1ccc(Cl)cc1)(c1cccnc1)c1c(F)cccc1F (stereo not drawn) | 182 | 80 | – | > 100000 |
| OC(c1cccnc1)(c1ccccc1Cl)c1ccccc1C(F)(F)F (stereo not drawn) | 724 | 297 | – | > 100000 |
| OC(c1ccc(C(F)(F)F)cc1)(c1cccnc1)c1ccc(Cl)cc1F (stereo not drawn) | 5 | 1.77 | – | > 100000 |
| OC(c1ccc(Cl)cc1)c1cccnc1 (stereo not drawn) | > 10000 | 4750 | > 100000 | – |
| CON=C(Cc1ccc(Cl)cc1Cl)c1cccnc1 | 4870 | 2140 | 91300 | – |
| Clc1ccc(C(c2cccnc2)c2cccs2)cc1 (stereo not drawn) | 45 | 17 | > 100000 | – |
